From US7943774B2 (priority 2008, dated 2011)

Assay: log P (pH2.3)
Format: physicochemical
Settings: for chromatographic logP: reversed-phase HPLC column (C18)
[1] = method [b]: LC-MS, acidic range, pH 2.7, 0.1% aqueous formic acid and acetonitrile, HPLC on reversed-phase C 18
[2] = method [b]: LC-MS, acidic range, pH 2.7, 0.1% aqueous formic acid and acetonitrile
[3] = method [c]: LC-MS, neutral range, pH 7.8, 0.001 molar aqueous ammonium bicarbonate and acetonitrile

SMILES	log p [2]	further results
Cc1ccccc1C=Cc1csc(C2CCN(C(=O)Cn3nc(C(F)(F)F)cc3C)CC2)n1 (mixture of isomers) [Example I-166]	–	log p [1]: 4.23^[b]
Cc1ccccc1C=Cc1csc(C2CCN(C(=O)Cn3nc(C(F)(F)F)cc3C(F)(F)F)CC2)n1 (mixture of isomers) [Example I-174]	–	log p [1]: 4.93^[b]
O=C(Cn1nc(C(F)(F)F)cc1C(F)(F)F)N1CCC(c2nc(C=Cc3ccccc3Br)cs2)CC1 (mixture of isomers) [Example I-175]	–	log p [1]: 4.99^[b]
O=C(Cn1nc(C(F)(F)F)cc1C(F)(F)F)N1CCC(c2nc(C=Cc3c(F)cccc3F)cs2)CC1 (mixture of isomers) [Example I-176]	–	log p [1]: 4.88^[b]
Cc1cc(C(F)(F)F)nn1CC(=O)N1CCC(c2nc(C=Cc3c(F)cccc3Cl)cs2)CC1 (mixture of isomers) [Example I-242]	–	log p [1]: 4.48^[b]
Cc1cc(C(F)(F)F)nn1CC(=O)N1CCC(c2nc(/C=C\c3ccccc3)cs2)CC1 [Example I-1]	3.91^[b]	–
O=C(Cn1ccc(C(F)(F)F)n1)N1CCC(c2nc(/C=C\c3ccccc3)cs2)CC1 [Example I-7]	3.72^[b]	–
Cc1c(Cl)c(C(F)(F)F)nn1CC(=O)N1CCC(c2nc(/C=C\c3ccccc3)cs2)CC1 [Example I-8]	4.56^[b]	–
Cc1cc(C(F)(F)F)nn1CC(=O)N1CCC(c2nc(/C=C\c3ccc(Cl)cc3)cs2)CC1 [Example I-9]	4.41^[b]	–
O=C(Cn1ccc(C(F)(F)F)n1)N1CCC(c2nc(/C=C\c3ccc(Cl)cc3)cs2)CC1 [Example I-10]	4.2^[b ]	–
Cc1c(Cl)c(C(F)(F)F)nn1CC(=O)N1CCC(c2nc(/C=C\c3ccc(Cl)cc3)cs2)CC1 [Example I-11]	4.92^[b]	–
COc1ccc(/C=C\c2csc(C3CCN(C(=O)Cn4nc(C(F)(F)F)cc4C)CC3)n2)cc1 [Example I-12]	3.9^[b]	–
COc1ccc(/C=C\c2csc(C3CCN(C(=O)Cn4nc(C(F)(F)F)c(Cl)c4C)CC3)n2)cc1 [Example I-14]	4.46^[b]	–
Cc1cc(C(F)(F)F)nn1CC(=O)N1CCC(c2nc(/C=C\c3cccc(C(F)(F)F)c3)cs2)CC1 [Example I-15]	4.51^[b]	–
O=C(Cn1ccc(C(F)(F)F)n1)N1CCC(c2nc(/C=C\c3cccc(C(F)(F)F)c3)cs2)CC1 [Example I-16]	4.3^[b]	–
Cc1c(Cl)c(C(F)(F)F)nn1CC(=O)N1CCC(c2nc(/C=C\c3cccc(C(F)(F)F)c3)cs2)CC1 [Example I-17]	5.03^[b]	–
O=C(Cn1ccc(C(F)(F)F)n1)N1CCC(c2nc(/C=C\c3cccc4ccccc34)cs2)CC1 [Example I-18]	4.35^[b]	–
Cc1c(Cl)c(C(F)(F)F)nn1CC(=O)N1CCC(c2nc(/C=C\c3cccc4ccccc34)cs2)CC1 [Example I-19]	5.14^[b]	–
Cc1cc(C(F)(F)F)nn1CC(=O)N1CCC(c2nc(/C=C\c3ccc4ccccc4c3)cs2)CC1 [Example I-20, 2-[5-Methyl-3-(trifluoromethyl)-1H-pyrazol-1-yl]-1-(4-{4-[(Z)-2-(2-naphthyl)vinyl]-1,3-thiazol-2-yl}piperidin-1-yl)ethanone]	–	chromatographic logP [2]: 4.61

SMILES	log p [2]	further results
O=C(Cn1ccc(C(F)(F)F)n1)N1CCC(c2nc(/C=C\c3ccc4ccccc4c3)cs2)CC1 [Example I-21]	4.35^[b]	–
Cc1c(Cl)c(C(F)(F)F)nn1CC(=O)N1CCC(c2nc(/C=C\c3ccc4ccccc4c3)cs2)CC1 [Example I-22]	5.08^[b]	–
Cc1cc(C(F)(F)F)nn1CC(=O)N1CCC(c2nc(/C=C\Cc3ccccc3)cs2)CC1 [Example I-23]	4.41^[b]	–
Cc1cc(C(F)(F)F)nn1CC(=O)N1CCC(c2nc(/C=C/c3ccccc3)cs2)CC1 [Example I-26]	3.99^[b]	–
Cc1cc(C(F)F)n(CC(=O)N2CCC(c3nc(CCc4ccccc4)cs3)CC2)n1 [Example I-35]	3.37^[b]	–
O=C(Cn1nc(C(F)(F)F)cc1C(F)(F)F)N1CCC(c2nc(CCc3cccc4ccccc34)cs2)CC1 [Example I-43]	4.89^[b]	–
Cc1cc(C)n(CC(=O)N2CCC(c3nc(CCc4ccccc4)cs3)CC2)n1 [Example I-54]	–	log p (method [a]: HPLC, acidic range, pH 2.3, 0.1% aqueous phosphoric acid and acetonitrile): 2.86^[a]
O=C(Cn1ccc(C(F)(F)F)n1)N1CCC(c2nc(CCc3ccccc3)cs2)CC1 [Example I-55]	3.57^[b]	–
O=C(Cc1cccc(C(F)(F)F)c1)N1CCC(c2nc(CCc3ccccc3)cs2)CC1 [Example I-56]	4.26^[b]	–
O=C(Cc1cccc(Cl)c1)N1CCC(c2nc(CCc3ccccc3)cs2)CC1 [Example I-57]	4.1^[b]	–
CCCCC(=O)N1CCC(c2nc(CCc3ccccc3)cs2)CC1 [Example I-58, 1-{4-[4-(2-Phenylethyl)-1,3-thiazol-2-yl]piperidin-1-yl}pentan-1-one]	–	chromatographic logP [2]: 3.73
O=C(Cn1nc(C(F)(F)F)cc1C(F)(F)F)N1CCC(c2nc(CCc3ccccc3)cs2)CC1 [Example I-59]	4.45^[b]	–
Cc1c(Cl)c(C(F)(F)F)nn1CC(=O)N1CCC(c2nc(CCc3ccccc3)cs2)CC1 [Example I-60]	4.34^[b]	–
O=C(c1cc(C(F)(F)F)ccc1C(F)(F)F)N1CCC(c2nc(CCc3ccccc3)cs2)CC1 [Example I-61, [2,5-Bis(trifluoromethyl)phenyl]{4-[4-(2-phenylethyl)-1,3-thiazol-2-yl]piperidin-1-yl}methanone]	–	chromatographic logP [2]: 4.67
O=C(c1cccc(C(F)(F)F)c1)N1CCC(c2nc(CCc3ccccc3)cs2)CC1 [Example I-62]	4.23^[b]	–
O=C(Cc1ccsc1)N1CCC(c2nc(CCc3ccccc3)cs2)CC1 [Example I-63, 1-{4-[4-(2-Phenylethyl)-1,3-thiazol-2-yl]piperidin-1-yl}-2-(thiophen-3-yl)ethanone]	–	chromatographic logP [2]: 3.47
Cc1c(Cl)c(C(F)(F)F)nn1C(C)C(=O)N1CCC(c2nc(CCc3ccccc3)cs2)CC1 (stereo not drawn) [Example I-64, 2-[4-Chloro-5-methyl-3-(trifluoromethyl)-1H-pyrazol-1-yl]-1-{4-[4-(2-phenylethyl)-1,3-thiazol-2-yl]piperidin-1-yl}propan-1-one]	–	chromatographic logP [2]: 4.62
Cn1ncc(CC(=O)N2CCC(c3nc(CCc4ccccc4)cs3)CC2)c1Cl [Example I-65, 2-(5-Chloro-1-methyl-1H-pyrazol-4-yl)-1-{4-[4-(2-phenylethyl)-1,3-thiazol-2-yl]piperidin-1-yl}ethanone]	–	chromatographic logP [2]: 2.98
COc1ccc(CCC(=O)N2CCC(c3nc(CCc4ccccc4)cs3)CC2)cc1OC [Example I-66, 3-(3,4-Dimethoxyphenyl)-1-{4-[4-(2-phenylethyl)-1,3-thiazol-2-yl]piperidin-1-yl}propan-1-one]	–	chromatographic logP [2]: 3.43

SMILES	log p [2]	further results
O=C(Cc1cc(C(F)(F)F)ccc1Cl)N1CCC(c2nc(CCc3ccccc3)cs2)CC1 [Example I-67, 2-[2-Chloro-5-(trifluoromethyl)phenyl]-1-{4-[4-(2-phenylethyl)-1,3-thiazol-2-yl]piperidin-1-yl}ethanone]	–	chromatographic logP [2]: 4.73
CC(C(=O)N1CCC(c2nc(CCc3ccccc3)cs2)CC1)n1ccc(C(F)(F)F)n1 (stereo not drawn) [Example I-68]	3.93^[b]	–
O=C(Cn1cccn1)N1CCC(c2nc(CCc3ccccc3)cs2)CC1 [Example I-69]	2.56^[b]	–
O=C(Cn1cc2ccccc2n1)N1CCC(c2nc(CCc3ccccc3)cs2)CC1 [Example I-70, 2-(2H-Indazol-2-yl)-1-{4-[4-(2-phenylethyl)-1,3-thiazol-2-yl]piperidin-1-yl}ethanone]	–	chromatographic logP [2]: 3.14
O=C(Cc1nc2ccccc2s1)N1CCC(c2nc(CCc3ccccc3)cs2)CC1 [Example I-71, 2-(1,3-Benzothiazol-2-yl)-1-{4-[4-(2-phenylethyl)-1,3-thiazol-2-yl]piperidin-1-yl}ethanone]	–	chromatographic logP [2]: 3.68
Cc1nc(C2CCN(C(=O)Cn3nc(C(F)(F)F)cc3C)CC2)sc1CC(C)C [Example I-73]	3.75^[b]	–
Cc1cc(C)n(CC(=O)N2CCC(c3nc(C#Cc4cccc5ccccc45)cs3)CC2)n1 [Example I-74]	–	log p [3]: 3.85^[c]
Cc1cc(C)n(CC(=O)N2CCC(c3nc(/C=C\c4cccc5ccccc45)cs3)CC2)n1 [Example I-76]	3.73^[b]	–
Cc1cc(C)n(CC(=O)N2CCC(c3nc(/C=C/c4cccc5ccccc45)cs3)CC2)n1 [Example I-77]	3.58^[b]	–
Cc1cc(C(F)(F)F)nn1CC(=O)N1CCC(c2nc(CCc3ccccc3)c(Br)s2)CC1 [Example I-78, 1-{4-[5-Bromo-4-(2-phenylethyl)-1,3-thiazol-2-yl]piperidin-1-yl}-2-[5-methyl-3-(trifluoromethyl)-1H-pyrazol-1-yl]ethanone]	–	chromatographic logP [2]: 4.71
Cc1cc(C)n(CC(=O)N2CCC(c3nc(CCc4cccc5ccccc45)cs3)CC2)n1 [Example I-79]	–	log p [3]: 3.39^[c]
Cc1cc(C)n(CC(=O)N2CCC(c3nc(CCCC(C)c4ccccc4)cs3)CC2)n1 (stereo not drawn) [Example I-83]	3.83^[b]	–
Cc1cc(C)n(CC(=O)N2CCC(c3nc(/C=C/c4ccccc4)cs3)CC2)n1 [Example I-84]	3.04^[b]	–
Cc1cc(C)n(CC(=O)N2CCC(c3nc(/C=C/CC(C)c4ccccc4)cs3)CC2)n1 (stereo not drawn) [Example I-85]	–	log p [3]: 3.83^[c]
C#Cc1csc(C2CCN(C(=O)Cn3nc(C(F)(F)F)cc3C)CC2)n1 [Example I-86, 1-[4-(4-Ethynyl-1,3-thiazol-2-yl)piperidin-1-yl]-2-[5-methyl-3-(trifluoromethyl)-1H-pyrazol-1-yl]ethanone]	–	chromatographic logP [2]: 2.57
Cc1cc(C(F)(F)F)nn1CC(=O)N1CCC(c2nc(/C=C/c3cccc(C(F)(F)F)c3)cs2)CC1 [Example I-94]	4.46^[b]	–
Cc1cc(C)n(CC(=O)N2CCC(c3nc(/C=C/c4cccc(C(F)(F)F)c4)cs3)CC2)n1 [Example I-96]	3.56^[b]	–
O=C(Cc1c(F)ccc(F)c1F)N1CCC(c2nc(C#Cc3cccc4ccccc34)cs2)CC1 [Example I-97]	4.71^[b]	–
Cc1cc(C(F)(F)F)nn1CC(=O)N1CCC(c2nc(C#Cc3ccccc3)cs2)CC1 [Example I-99]	3.82^[b]	–
